Data on five substances can be found in patent publication US5601821A, “Immunoactive peptides and antibodies and their use in anti-allergy treatment” (National Research Development Corporation, priority 1989, dated 1997).

Where no end group is shown, it is not given here.

For assay [1], the system named is rats experimentally sensitised to ovalbumin. Description: Serum histamine after systemic allergen (ovalbumin) challenge of sensitised, peptide-immunised rats. The class given is in vivo, rat. As for the experimental part:
Groups of rats (male, Wistar) were hypersensitized by subcutaneous injection of a mixture (0.5 ml) of 0.5 ml chicken egg white (200 mg protein) and 2.5 ml Bordetella pertussis (40×10^10 organisms/ml)by a well-established experimental procedure (Jasani, B. and Stanworth, D. R., Journal of Immunologlcal Methods, 30, pp. 55-68 (1979)).
Repeat subcutaneous injections of the peptide-carrier protein conjugate mixed with incomplete Freund's adjuvant (IFA) were administered at days 14 and 21.
The effect of pre- or post-sensitisation immunisation with peptide (as described in section (b) above) on the state of hypersensitivity of rats which had been experimentally sensitised to ovalbumin (according to Example 5(a) above) was determined by the following procedure; similar investigations were carried out on non-immunised groups of rats as a control.
Animals from both the immunized and control groups were bled (from the tail vein) prior to systemic allergen challenge by intrapenal injection of ovalbumin (5 mg). The animals were sacrificed 10 min. later, whereupon a further sample of blood was obtained from their hearts. The histamine levels in serum from both pre-and post-allergen challenge blood samples were determined by a standard automated spectrofluorimetric procedure; the antibody profiles of the sera being determined by ELISA (according to Example 5(c) above).

The test system of assay [2] is rat peritoneal mast cells. Also on record: dose or concentration left out as unconfirmed. The settings on record: concentration range; cited from earlier work.
The mark [3] stands for this setting: A: immunised with peptide (PPD conjugate) before experimental sensitisation.
The mark [4] stands for this setting: B: immunised with peptide (PPD conjugate) after experimental sensitisation.

For the substance “F57: non-histamine releasing analogue of F49 in which the N-terminal lysine residue is replaced by glycine (GYNGSNQRFFIF-NH2)”, the “Histamine release (mean allergen-induced serum histamine level)” value in assay [1] (setting [3]) was found to be 606 ng/mL; in assay [1] (setting [4]) it was 1159 ng/mL. Further, in assay [1] (pre- or post-immunisation of experimentally sensitised rats), the “effect on allergen-induced histamine release” value is “no significant effect”.

“KTKGSGFF [octapeptide (sequence 497-504), human IgE Cε4 residues 497-504]”: the “non-cytolytic histamine release from rat peritoneal mast cells” value (“non-cytolytic histamine release” for short) in assay [2] is given as “dose-dependent histamine release”.

On to “KTKGSGFFVF [decapeptide (sequence 497-506), human IgE Cε4 residues 497-506]”, for which the “non-cytolytic histamine release” value in assay [2] is listed as “dose-dependent histamine release”.

With “Lys-Tyr-Asn-Gly-Ser-Asn-Gln-Arg-Phe-Phe-Ile-Phe-NH2 (KYNGSNQRFFIF-NH2) [F49, histamine releasing rat ε-chain dodecapeptide]”, the entries for the “Histamine release (mean allergen-induced serum histamine level)” value in assay [1] (setting [3]) and in assay [1] (setting [4]) were 0 ng/mL and 50 ng/mL, respectively.

For the substance “RKTKGSGFF [nonapeptide (sequence 496-504), human IgE Cε4 residues 496-504]”, in assay [2], the “non-cytolytic histamine release” value was “dose-dependent histamine release”.
